Results on 26 compounds are retold here after US9133182B2, “Selective androgen receptor modulators” (Radius Health, Inc., priority 2010, dated 2015).

Structures are written as SMILES.

A word on the IC50: it is the concentration that gives 50% inhibition.

The target of one test is androgen receptor (Rattus norvegicus (Rat), UniProt P15207). As to the kind of experiment: androgen receptor binding assay (fluorescence polarization, Invitrogen). The note with it: AR-Fluormone complex, 4 h at room temperature. How it is done: The assay was performed as specified by the manufacturer (Invitrogen, Madison, Wis.). Briefly, 1 μl of 10 mM compound was added to 500 μl of AR screening buffer in a 1.5 ml eppendorf tube to make a 2×10^−5M stock. 10-fold serial dilutions of the test compounds were prepared ranging in concentration from 10^−5M to 10^−12M. Each dilution was added in triplicate to a black 384-microtiter plate. The test compounds will be diluted 2-fold in the final reaction. 2×AR-Fluormone™ complex was prepared with 2 nM Flourmone AL Green™ and 30 nM AR. 25 μl of 2×complex was aliquoted to each reaction well, such that the final reaction volume was 50 μl per well. Plate was sealed with a foil cover and incubated in the dark at room temperature for 4 h. Polarization values for each well were measured. The polarization values were plotted against the concentration of the test compound. […] As a control, a competition curve for R1881 (methyltrienolone) was performed for each assay.
In general terms: Polarisation of emitted light reports the rotation of a fluorescent probe.

Test [1] relates to immature, castrated rat (levator ani and bulba cavernous, LABC). Briefly: In vivo rat Herschberger assay, LABC weight. The arrangement: key: no = no activity observed at highest dose tested.; yes = increased LABC weight relative to castrated vehicle control. The note with it: once daily oral gavage for 4 days, maximum tested dose between 1 mg/kg and 30 mg/kg, Table 1. From the text:
In Vivo Rat Model of Androgen and Anabolic Activity-Rat Herschberger Assay
The following is a typical procedure of the in vivo evaluation of the selective androgens of this invention. In particular, this assay looks primarily at the ability of the selective androgens of this invention to increase muscle size in an immature, castrated rat. In addition, androgenic effects are looked at primarily by weighing the prostate and seminal vesicles. Selective compounds will show a greater increase in the levator ani relative to the prostate and seminal vesicles when compared to testosterone treated, castrated animals or to intact animals that have not been treated. Immature Sprague Dawley male rats were obtained Charles River Laboratories (Stoneridge, N.Y.). All animals were maintained in a temperature and humidity controlled room with a 12 hr light: 12 hr dark cycle, with ad lib access to food (TD 291615, Teklad, Madison, Wis.) and water. Rats were anesthetized and orchidectomized (GDX) or sham surgery (SHAM) was performed. After a 7-day recovery period, the animals were randomized according to weight and assigned to treatment groups (n=5), SHAM, OVX+vehicle, OVX+Cpd treated. Testosterone propionate (TP 1 mg/kg in 5% DMSO/95% corn oil) was administered by once daily subcutaneous injections, while the compounds of the invention are dosed in vehicle (0.5% carboxymethylcellulose) was administered by once daily oral gavage. The rats were then dosed once daily for 4 days. All animals were euthanized via carbon dioxide inhalation 24 hs after the last dose. The prostate, seminal vesicle and levator ani and bulba cavernous (LABC) tissues were removed, weighed and recorded. An increase in mean LABC indicates anabolic activity for that particular compound with regard to oral dosing typically at a maximum tested dose of between 1 mg/kg and 30 mg/kg—see Table 1.

Sequence of androgen receptor (P15207 651-902): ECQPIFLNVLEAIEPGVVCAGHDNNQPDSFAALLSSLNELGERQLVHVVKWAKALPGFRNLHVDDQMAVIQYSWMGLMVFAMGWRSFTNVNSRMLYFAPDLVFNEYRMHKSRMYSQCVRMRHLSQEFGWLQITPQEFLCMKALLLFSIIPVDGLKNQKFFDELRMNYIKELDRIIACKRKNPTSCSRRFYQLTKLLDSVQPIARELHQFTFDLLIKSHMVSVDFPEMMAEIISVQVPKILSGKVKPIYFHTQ

The compound `N#Cc1ccc(N2C(=O)CC[C@@H]2[C@H](O)C(F)(F)F)cc1C(F)(F)F` [Example 1, 4-((R)-2-oxo-5-((S)-2,2,2-trifluoro-1-hydroxyethyl)pyrrolidin-1-yl)-2-(trifluoromethyl)benzonitrile] displayed an IC50 on androgen receptor (Table 1) of 14 nM. For the same compound, the “Oral activity in Herscheberger assay on LABC weight” value (from here on “Oral activity”) in test [1] is given as “yes”. In the case of `N#Cc1ccc(N2C(=O)CC[C@@H]2[C@@H](O)C(F)(F)F)cc1C(F)(F)F` [Example 2, 4-((R)-2-oxo-5-((R)-2,2,2-trifluoro-1-hydroxyethyl)pyrrolidin-1-yl)-2-(trifluoromethyl)benzonitrile], the IC50 on androgen receptor (Table 1) came out at 100 nM. `Cc1c(N2C(=O)CC[C@@H]2[C@H](O)C(F)(F)F)ccc(C#N)c1C(F)(F)F` [Example 3, 3-methyl-4-((R)-2-oxo-5-((S)-2,2,2-trifluoro-1-hydroxyethyl)pyrrolidin-1-yl)-2-(trifluoromethyl)benzonitrile] had an IC50 at androgen receptor (Table 1) of 11 nM. In addition, the “Oral activity” value in test [1] was “yes”. Compound `Cc1c(N2C(=O)CC[C@@H]2[C@@H](O)C(F)(F)F)ccc(C#N)c1C(F)(F)F` [Example 4, 3-methyl-4-((R)-2-oxo-5-((R)-2,2,2-trifluoro-1-hydroxyethyl)pyrrolidin-1-yl)-2-(trifluoromethyl)benzonitrile] came in with an IC50 at androgen receptor (Table 1) of 120 nM. Regarding `O=C1CC[C@H]([C@H](O)C(F)(F)F)N1c1ccc2nnsc2c1` [Example 5, (R)-1-(Benzo[d][1,2,3]thiadiazol-6-yl)-5-((S)-2,2,2-trifluoro-1-hydroxyethyl)pyrrolidin-2-one], the IC50 at androgen receptor (Table 1) stood at 530 nM.

On to `O=C1CC[C@H]([C@@H](O)C(F)(F)F)N1c1ccc2nnsc2c1` [Example 6, (R)-1-(Benzo[d][1,2,3]thiadiazol-6-yl)-5-((R)-2,2,2-trifluoro-1-hydroxyethyl)pyrrolidin-2-one], for which the “Binding IC50 (nM)” value at androgen receptor (Table 1) is on record as “No binding”. For `N#Cc1ccc(N2C(=O)OC[C@@H]2[C@H](O)C(F)(F)F)cc1C(F)(F)F` [Example 7, 4-((R)-2-oxo-4-((S)-2,2,2-trifluoro-1-hydroxyethyl)oxazolidin-3-yl)-2-(trifluoromethyl)benzonitrile], on androgen receptor (Table 1), the IC50 was 50 nM. Also, the “Oral activity” value in test [1] is “yes”.

For `N#Cc1ccc(N2C(=O)OC[C@@H]2[C@@H](O)C(F)(F)F)cc1C(F)(F)F` [Example 8, 4-((R)-2-oxo-4-((R)-2,2,2-trifluoro-1-hydroxyethyl)oxazolidin-3-yl)-2-(trifluoromethyl)benzonitrile], the concentration for half-maximal inhibition (IC50) on androgen receptor (Table 1) was above 1000 nM. In turn, `N#Cc1ccc(N2C(=O)OC[C@H]2[C@H](O)C(F)(F)F)cc1Cl` [Example 9, 2-chloro-4-((S)-2-oxo-4-((S)-2,2,2-trifluoro-1-hydroxyethyl)oxazolidin-3-yl)benzonitrile] yielded an IC50 on androgen receptor (Table 1) of 45 nM. For the same compound, the “Oral activity” value in test [1] was “yes”. `N#Cc1ccc(N2C(=O)OC[C@H]2[C@@H](O)C(F)(F)F)cc1Cl` [Example 10, 2-chloro-4-((S)-2-oxo-4-((R)-2,2,2-trifluoro-1-hydroxyethyl)oxazolidin-3-yl)benzonitrile] displayed an IC50 on androgen receptor (Table 1) above 1000 nM.

Take `Cc1c(N2C(=O)OC[C@@H]2[C@@H](O)C(F)(F)F)ccc(C#N)c1Cl` [Example 12, 2-chloro-3-methyl-4-((R)-2-oxo-4-((R)-2,2,2-trifluoro-1-hydroxyethyl)oxazolidin-3-yl)benzonitrile]: the IC50 on androgen receptor (Table 1) came to 933 nM. In the case of `Cc1c(N2C(=O)O[C@H](C)[C@@H]2[C@H](O)C(F)(F)F)ccc(C#N)c1Cl` [Example 15, 2-chloro-3-methyl-4-((4S,5R)-5-methyl-2-oxo-4-((S)-2,2,2-trifluoro-1-hydroxyethyl)oxazolidin-3-yl)benzonitrile], the IC50 on androgen receptor (Table 1) came out at 200 nM. `Cc1c(N2C(=O)O[C@H](C)[C@@H]2[C@@H](O)C(F)(F)F)ccc(C#N)c1Cl` [Example 16, 2-chloro-3-methyl-4-((4S,5R)-5-methyl-2-oxo-4-((R)-2,2,2-trifluoro-1-hydroxyethyl)oxazolidin-3-yl)benzonitrile] showed an IC50 at androgen receptor (Table 1) above 1000 nM.

Compound `Cc1c(N2C(=O)O[C@@H](C)[C@@H]2[C@@H](O)C(F)(F)F)ccc(C#N)c1Cl` [Example 18, 2-chloro-3-methyl-4-((4S,5S)-5-methyl-2-oxo-4-((R)-2,2,2-trifluoro-1-hydroxyethyl)oxazolidin-3-yl)benzonitrile] gave an IC50 on androgen receptor (Table 1) of 700 nM. For the compound `C[C@@H]1OC(=O)N(c2ccc(C#N)c(C(F)(F)F)c2)[C@H]1[C@H](O)C(F)(F)F` [Example 19, 4-((4S,5S)-5-methyl-2-oxo-4-((S)-2,2,2-trifluoro-1-hydroxyethyl)oxazolidin-3-yl)-2-(trifluoromethyl)benzonitrile], in test [1], the “Oral activity” value is “yes”. As for `C[C@@H]1OC(=O)N(c2ccc(C#N)c(C(F)(F)F)c2)[C@H]1[C@@H](O)C(F)(F)F` [Example 20, 4-((4S,5S)-5-methyl-2-oxo-4-((R)-2,2,2-trifluoro-1-hydroxyethyl)oxazolidin-3-yl)-2-(trifluoromethyl)benzonitrile], the “Oral activity” value in test [1] is “yes”. At androgen receptor (Table 1), `Cc1c(N2C(=O)O[C@@H](C)[C@@H]2[C@H](O)C(F)(F)F)ccc(C#N)c1C(F)(F)F` [Example 23, 3-methyl-4-((4S,5S)-5-methyl-2-oxo-4-((S)-2,2,2-trifluoro-1-hydroxyethyl)oxazolidin-3-yl)-2-(trifluoromethyl)benzonitrile] showed an IC50 of 33 nM. As for `Cc1c(N2C(=O)O[C@@H](C)[C@@H]2[C@@H](O)C(F)(F)F)ccc(C#N)c1C(F)(F)F` [Example 24, 3-methyl-4-((4S,5S)-5-methyl-2-oxo-4-((R)-2,2,2-trifluoro-1-hydroxyethyl)oxazolidin-3-yl)-2-(trifluoromethyl)benzonitrile], the IC50 on androgen receptor (Table 1) was above 1000 nM. Take `O=C1CC[C@H]([C@@H](O)C(F)(F)F)N1c1ccc(Cl)c(Cl)c1` [Example 28, (R)-1-(3,4-dichlorophenyl)-5-((R)-2,2,2-trifluoro-1-hydroxyethyl)pyrrolidin-2-one]: on androgen receptor (Table 2), the IC50 is above 1000 nM. As to `N#Cc1ccc(N2C(=O)CC[C@@H]2[C@@H](O)C(F)(F)F)cc1Cl` [Example 33, 2-chloro-4-((R)-2-((R)-2,2,2-trifluoro-1-hydroxyethyl)-5-oxopyrrolidin-1-yl)benzonitrile], the IC50 on androgen receptor (Table 2) was determined as 65 nM. Take `Cc1c(N2C(=O)O[C@H](C)[C@@H]2[C@H](O)C(F)(F)F)ccc(C#N)c1C(F)(F)F` [Example 34, 4-((4S,5R)-4-((S)-2,2,2-trifluoro-1-hydroxyethyl)-5-methyl-2-oxooxazolidin-3-yl)-2-(trifluoromethyl)-3-methylbenzonitrile]: the IC50 on androgen receptor (Table 2) is above 1000 nM. On the same count and under the same terms, the figure for `Cc1c(N2C(=O)O[C@H](C)[C@@H]2[C@@H](O)C(F)(F)F)ccc(C#N)c1C(F)(F)F` [Example 35, 4-((4S,5R)-4-((R)-2,2,2-trifluoro-1-hydroxyethyl)-5-methyl-2-oxooxazolidin-3-yl)-2-(trifluoromethyl)-3-methylbenzonitrile] is above 10000 nM; for `C[C@H]1OC(=O)N(c2ccc(C#N)c(C(F)(F)F)c2)[C@H]1[C@H](O)C(F)(F)F` [Example 36, 4-((4S,5R)-4-((S)-2,2,2-trifluoro-1-hydroxyethyl)-5-methyl-2-oxooxazolidin-3-yl)-2-(trifluoromethyl)benzonitrile] it is above 1000 nM. At androgen receptor (Table 2), `C[C@H]1OC(=O)N(c2ccc(C#N)c(C(F)(F)F)c2)[C@H]1[C@@H](O)C(F)(F)F` [Example 37, 4-((4S,5R)-4-((R)-2,2,2-trifluoro-1-hydroxyethyl)-5-methyl-2-oxooxazolidin-3-yl)-2-(trifluoromethyl)benzonitrile] had an IC50 above 1000 nM. `C[C@H]1OC(=O)N(c2ccc(C#N)c(Cl)c2)[C@H]1[C@H](O)C(F)(F)F` [Example 38, 2-chloro-4-((4S,5R)-4-((S)-2,2,2-trifluoro-1-hydroxyethyl)-5-methyl-2-oxooxazolidin-3-yl)benzonitrile] registered an IC50 on androgen receptor (Table 2) of 150 nM. The same measure, in the same setting: the figure for `C[C@H]1OC(=O)N(c2ccc(C#N)c(Cl)c2)[C@H]1[C@@H](O)C(F)(F)F` [Example 39, 2-chloro-4-((4S,5R)-4-((R)-2,2,2-trifluoro-1-hydroxyethyl)-5-methyl-2-oxooxazolidin-3-yl)benzonitrile] is 550 nM.
